Results published in patent publication US11998616B2, “Nanoparticles for crossing the blood brain barrier and methods of treatment using the same” (California Institute of Technology, priority 2018, dated 2024).
Entries after “also recorded” stand apart in the source; their conditions may differ.

Assays:
BT474-Gluc cells = experiment: In vitro sensitivity to CPT of BT474-Gluc cells isolated from brain tumors and parental cells; assay type: cell-based, human; settings: cells from IC-, ICD-, IV-established tumors and parental cells; dose-response curves
[1] = system: human BT474-Gluc breast cancer metastatic brain tumors; experiment: Antitumor efficacy, brain tumors established by ICD injection; assay type: in vivo, Rag2−/−; Il2rg−/− mice
Procedure: Intracardiac (ICD) Brain Metastasis Model. All animals were treated according to the NIH guidelines for animal care and use as approved by the Caltech Institutional Animal Care and Use Committee. BT474-Gluc cells, transduced with an expression cassette encoding Gluc and CFP separated by an internal ribosomal entry site using a lentiviral vector, were obtained from Dr. Jain at Harvard University. BT474-Gluc cells were maintained in RPMI 1640 supplemented with 10% (v/v) FBS in a humidified oven at 37° C. with 5% CO2. 100,000 BT474-Gluc cells were suspended in 100 μL of RPMI and slowly injected into the left ventricle of female Rag2−/−; Il2rg−/− mice. Injections were performed blind, midway between the sternal notch and top of xyphoid process, and 13% anatomical left of sternum. Successful insertion into the left cardiac ventricle was confirmed by a bright red pulse of blood in the syringe.
(§1) Tumor Size Monitoring. For ICD and IV models, formation of BT474-Gluc brain metastatic tumors was monitored by MRI every third week until macroscopic tumors were visible (˜0.2 mm^3 in volume). Tumor growth was then monitored weekly by MRI, as for the IC model. Mice were anaesthetized with 1.5-2% (v/v) isoflurane in O2 at a flow rate of 1-1.5 mL/min. […] Tumor volume was determined manually from the T2 hyperintense tumor regions of the brain using Fiji software. For the IC model, tumor size was also monitored by measuring the activity of secreted Gluc in the blood. […] Blood was transferred to an opaque 96-well plate (Nunc), and Gluc activity measured using the Pierce Gaussia Luciferase Flash Assay Kit, according to the manufacturer's protocol. Photon counts were acquired for 5 s following addition of coelenterazine using a Safire 2 multi-mode plate reader (Tecan). […]
(§2) Treatments. Treatment began when brain metastatic tumors reached ˜2 mm^3, as measured by MRI. […]
Brain Tumors Show Significant Delay in Growth with TfR-Targeted Nanoparticles, but their Response Differs when Established by Different Methods. […] After IC, ICD or IV injection of BT474-Gluc cells, formation of brain metastatic tumors was monitored by MRI. […]

[2] = Gross toxicity observation during efficacy studies; assay type: in vivo, Rag2−/−; Il2rg−/− mice; settings: tail vein injection once per week for 4 weeks
Procedure: Treatments. Treatment began when brain metastatic tumors reached ˜2 mm^3, as measured by MRI. Mice in each model were randomized into […] of six mice per group. CPT at a dose of 4 mg/kg (in 20% DMSO, 20% PEG 400, 30% ethanol, and 30% 10 mM pH 3.5 phosphoric acid), Herceptin at 24 mg/kg (in PBS, pH 7.4), TfR-targeted CPT nanoparticles at 4 mg/kg (CPT basis, in PBS, pH 7.4), TfR-targeted Herceptin nanoparticles at 24 mg/kg (Herceptin basis, in PBS, pH 7.4), and TfR-targeted combination CPT/Herceptin nanoparticles at 4 and 24 mg/kg (CPT and Herceptin bases, respectively, in PBS, pH 7.4) were freshly prepared. The different formulations were systemically administered by lateral tail vein injection once per week for 4 weeks. Injections were standardized to 150 μL per 20 g body weight. The control treatment was 0.9% (w/v) saline.

[3] = system: human BT474-Gluc breast cancer metastatic brain tumors; experiment: Antitumor efficacy, brain tumors established by IV injection; assay type: in vivo, Rag2−/−; Il2rg−/− mice
Procedure: (§3) For the IC model, 50,000 BT474-Gluc cells in 2 μL RPMI were intracranially injected into the right cerebral hemisphere of female Rag2−/−; Il2rg−/− mice (Jackson Laboratory) using a stereotaxic apparatus at a rate of 0.1 μL/min. The coordinates for injection were 2 mm posterior, 1.5 mm lateral to bregma, and 2.5 mm depth from bregma. For the IV model, 2 M cells were suspended in 150 μL RPMI and slowly injected into the lateral tail vein of restrained female Rag2−/−; Il2rg−/− mice.
Tumor Size Monitoring. For ICD and IV models, formation of BT474-Gluc brain metastatic tumors was monitored by MRI every third week until macroscopic tumors were visible (˜0.2 mm^3 in volume). Tumor growth was then monitored weekly by MRI, as for the IC model. Mice were anaesthetized with 1.5-2% (v/v) isoflurane in O2 at a flow rate of 1-1.5 mL/min. T2-weighted 3D RARE images were acquired to assess the tumor volume. The image acquisition parameters were as follows: echo time: 6.1 ms; repetition time: 250 ms; rapid acquisition relaxation enhanced (RARE) factor: 4; number of averages: 4; field of view: 2.0 cm×1.2 cm×0.8 cm; matrix: 200×120×80 ([…] resolution). Tumor volume was determined manually from the T2 hyperintense tumor regions of the brain using Fiji software. For the IC model, tumor size was also monitored by measuring the activity of secreted Gluc in the blood. […] Blood was transferred to an opaque 96-well plate (Nunc), and Gluc activity measured using the Pierce Gaussia Luciferase Flash Assay Kit, according to the manufacturer's protocol. Photon counts were acquired for 5 s following addition of coelenterazine using a Safire 2 multi-mode plate reader (Tecan). […]
as §2
Development of Mouse Model that Replicates the Metastasis Process in HER2-Positive Breast Cancer Brain Metastasis Patients. […] HER2-positive BT474-Gluc cells were intravenously (IV) injected into Rag2^−/−; Il2rg^−/− mice, and formation of brain metastases was monitored by MRI. […]

[4] = system: human BT474-Gluc breast cancer metastatic brain tumors; experiment: Antitumor efficacy, brain tumors established by IC injection; assay type: in vivo, Rag2−/−; Il2rg−/− mice
Procedure: as §3
as §1, with “mL/min. T2-weighted 3D RARE images were acquired to assess the tumor volume.” for “mL/min.”
as §2
Brain Tumors Show Significant Delay in Growth with TfR-Targeted Nanoparticles, but their Response Differs when Established by Different Methods. […] After IC, ICD or IV injection of BT474-Gluc cells, formation of brain metastatic tumors was monitored by MRI. […] Brain tumor volume was measured weekly by MRI. Blood Gluc activity was measured in addition only for the IC model, due to substantial extracranial tumor burden in the ICD and IV models.

[5] = Brain uptake of therapeutics in tumor and healthy brain tissue by HPLC; assay type: in vivo, Rag2−/−; Il2rg−/− mice; settings: IC-established brain tumors; 24 h after 4 mg/kg dose (CPT basis)
Procedure: Brain Uptake of Therapeutics Differs in Tumor, but not Healthy Tissue between Models. To ascertain whether differences in brain penetration of the therapeutics might explain the discordance in efficacy between brain metastasis models, we systemically administered an additional dose of each treatment at the end of the efficacy study. After 24 h, mice were anesthetized and perfused with PBS to clear any remaining nanoparticles or free drug from the bloodstream. Drug uptake into tumor and healthy brain tissue was quantified by HPLC as previously described.

[6] = 4 mg/kg (CPT basis) weekly x4, end of the study

**Q.** Which results are given for `CC[C@@]1(O)C(=O)OCc2c1cc1n(c2=O)Cc2cc3ccccc3nc2-1` [CPT, camptothecin]?
**A.** sensitivity of cells to CPT in vitro (BT474-Gluc cells): comparable sensitivities to CPT; also recorded: similarly sensitive to CPT; Mean tumor volume [1, 6]: 69 mm^3; Median tumor volume [1, 6]: 71 mm^3; tumor growth response ([1]; compared to saline): modest response; gross signs of toxicity [2]: animals did have reactions to dosing; Mean tumor volume [3, 6]: 86 mm^3; Median tumor volume [3, 6]: 86 mm^3; tumor growth inhibition ([3]; compared to saline): no tumor growth inhibition; Mean tumor volume ([4]; 4 mg/kg (CPT basis) tail vein once per week for 4 weeks, end of the study): 39 mm^3; Median tumor volume [4, 6]: 39 mm^3; decrease in mean tumor volume compared to saline ([4]; end of the study): 2.6 fold; accumulation in tumor tissue [5]: significant accumulation
